Columns and labels:
Slco1a4 = molecular target: T1, Slco1a4 (Mus musculus, UniProt Q9EP96); assay: Compound uptake in HEK293 cells transfected with Slco1a4; format: cell-based; parameters: FLAG; expressed in transfected cells
T1 sequence (Q9EP96 1-670): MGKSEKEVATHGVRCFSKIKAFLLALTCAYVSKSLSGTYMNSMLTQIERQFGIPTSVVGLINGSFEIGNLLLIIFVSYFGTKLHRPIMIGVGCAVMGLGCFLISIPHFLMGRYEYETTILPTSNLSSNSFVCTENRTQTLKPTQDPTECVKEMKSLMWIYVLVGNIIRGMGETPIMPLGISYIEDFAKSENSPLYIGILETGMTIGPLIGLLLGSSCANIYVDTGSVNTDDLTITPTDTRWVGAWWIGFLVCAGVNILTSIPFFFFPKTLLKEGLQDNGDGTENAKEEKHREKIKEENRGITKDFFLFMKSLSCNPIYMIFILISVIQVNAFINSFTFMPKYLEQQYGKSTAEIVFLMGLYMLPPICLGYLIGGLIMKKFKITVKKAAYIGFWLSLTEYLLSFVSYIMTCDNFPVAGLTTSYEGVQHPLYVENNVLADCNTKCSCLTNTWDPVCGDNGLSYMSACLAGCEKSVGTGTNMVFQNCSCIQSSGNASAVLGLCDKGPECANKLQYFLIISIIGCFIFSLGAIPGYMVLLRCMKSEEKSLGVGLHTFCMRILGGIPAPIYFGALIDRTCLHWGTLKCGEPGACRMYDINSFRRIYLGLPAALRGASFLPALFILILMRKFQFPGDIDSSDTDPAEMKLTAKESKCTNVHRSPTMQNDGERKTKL
Method: HEK293 cells are cultured and seeded at ~60% confluency in 24-well plates and are transiently transfected with 250 ng of a candidate transporter and 1 μL transfection reagent (JetPRIME). After 2 days, cells are washed and novel fluorescent probes at different concentrations are added to the transport medium and incubated at 37° C., for at least 30 minutes. To terminate the transport, cells are washed with PBS and fixed with 4% paraformaldehyde. The colocalization of probe uptake and cells expressing the transporters is investigated by immunostaining the transporter which has a fused FLAG tag, using anti-FLAG 488. Before confocal imaging, nuclei are labeled with Hoechst 33342 and cells are mounted and imaged on a Leica SP8 confocal microscope.
For in vitro experiments, HEK293 cells were cultured and seeded in 24-well plates, reaching approximately 60% confluency. For transient transfection, 250 ng of a candidate transporter plasmid and 1 μL of transfection reagent (JetPRIME) were added to the cells. After a 2-day incubation period, the cells were washed, and novel fluorescent probes were introduced into the transport medium at various concentrations. The cells were then incubated at 37° C., for a minimum of 30 minutes to allow for uptake. To stop the transport process, the cells were washed with PBS and fixed using 4% paraformaldehyde. Immunostaining of the transporter, which was fused with a FLAG tag, was performed using an anti-FLAG 488 antibody. Before confocal imaging, the cell nuclei were labeled with Hoechst 33342. Finally, the cells were mounted and imaged using a Leica SP8 confocal microscope.

brain cell types = assay: In vivo two-photon imaging of mouse cortex after topical cortical administration of fluorophores
Method: Briefly, animals are anaesthetized via intraperitoneal injections of ketamine/xylazine or via inhaled isoflurane. A region of the skull (3×3 mm) is gently removed with a high-speed drill and the underlying dura is removed. A small glass coverslip is placed over the skull to allow long term optical access for in vivo imaging. Labeling with fluorescent dyes is performed either via intravenous injections or topically application to the cortical surface for 20 min prior to glass cover placement. After recovery, in vivo images are acquired using a two-photon microscope (Bruker Technologies) equipped with a multimodal (fixed wavelength 1040 nm and tunable wavelength) InSight X3 two-photon laser (Spectra Physics) and 20× water immersion objective (Zeiss 1.0N.A.). The two-photon laser is appropriately tuned to excite particular fluorescent dyes and proteins as needed. In selected cases, following in vivo imaging, mice will be sacrificed and perfused for follow up immunohistochemistry and high-resolution confocal imaging (Leica SP8) to further confirm colocalization of dyes and cells expressing particular transporters.
One-month-old wild-type mice were anesthetized using a ketamine/xylazine solution at doses of 100 mg/kg and 10 mg/kg, respectively. The fur around the skull area was shaved, and buprenex (0.1 mg per kg) and carprofen (5 mg per kg) were administered subcutaneously. Mice were kept on a heating pad at 37° C., and anesthesia was periodically monitored. The skin was treated with povidone-iodine solution, followed by cleaning with ethanol, and eye ointment was applied. A small skin section was excised to expose the skull. Thinning of the skull was performed in a circular area, followed by delicately lifting of the remaining skull without harm to the underlying brain. Within the circular region, the dura was gently removed using fine forceps, and a 4 mm cover glass was softly pressed onto the brain surface and affixed to the skull. Fluorescent dyes were applied either through intravenous injections or topically to the cortical surface for 20 minutes before placing the glass cover. A customized head bar was attached either by adhesive (for acute imaging) or permanently implanted (using dental cement, for chronic imaging) onto the skull. Mice were imaged under a two-photon microscope (Prairie Technologies) with a mode-locked MaiTai tunable laser (Spectra Physics). Imaging was performed with a 20× water immersion objective (Zeiss, 1.0NA). Images were captured at depths up to 300 μm from the pial surface using excitation wavelengths ranging from 750 to 950 nm as previously described. Mice undergoing chronic imaging received a recovery period on a heating pad post-surgery, and buprenex (0.1 mg per kg) and carprofen (5 mg per kg) were administered for 3 days.
Batches of 10 compounds were applied through the craniotomy to the cortical surface before placing a cover glass window. No additional washings were performed, and the cover glass was placed, allowing up to 3 hours of imaging of the cortical surface with a two-photon microscope. Following imaging, the data were analyzed to identify potential patterns of cell-specific labeling. […] Positive batches underwent three additional rounds of imaging, with each batch being sequentially split, until a single compound displaying cell-type-specific labeling was identified. As these compounds were not initially purified, the labeling may have resulted from fluorescent byproducts of synthesis. Consequently, large-scale synthesis, purification and characterization (FIGS. 29A-29D) of the identified compounds were conducted. The purified compounds were subsequently retested using in vivo imaging to confirm cell type specificity.
It was reasoned that the best strategy to identify fluorophores with specific affinity to certain cell types and transport mechanisms would be by direct screening in the intact in vivo brain microenvironment. […]

| SMILES | uptake in Slco1a4 transfected HEK293 cells (Slco1a4; concentration not given) | Target (brain cell types; cell type taking up the compound in vivo (Table 1)) | labeling of other (non-endothelial) cell types (brain cell types; topical application to cortex) | endothelial cell labeling/uptake after topical application to the brain (brain cell types; topical cortical application) | uptake in Slco1a4 transfected HEK293 cells (Slco1a4; 10 μM) | cellular labeling in cortex (brain cell types; topical cortical administration, 50 μM, wild type mice) |
| --- | --- | --- | --- | --- | --- | --- |
| O=S(=O)([O-])c1cc(S(=O)(=O)O)ccc1C1=c2cc3c4c(c2Oc2cc(Br)ccc21)CCC[N+]=4CCC3 [Compound 1, 2-(12-bromo-1,2,3,5,6,7-hexahydrochromeno[2,3-f]pyrido[3,2,1-ij]quinolin-4-ium-9-yl)-5-sulfobenzenesulfonate] | only those cells expressing SLCO1A4 (as evidenced by anti-FLAG labeling-green) take up compound 1 | Endothelial | only endothelial cells are labeled | Highly specific labeling of endothelial cells within capillaries |  |  |
| COc1cc2c(c(OC)c1OC)-c1ccc(OC)c(=O)cc1C(NS(=O)(=O)c1ccc(-c3c4ccc(N(C)C)cc4[o+]c4cc(N(C)C)ccc34)c(S(=O)(=O)[O-])c1)CC2 (stereo not drawn) [Compound 47, 2-(3,6-bis(dimethylamino)xanthylium-9-yl)-5-(N-(1,2,3,10-tetramethoxy-9-oxo-5,6,7,9-tetrahydrobenzo[a]heptalen-7-yl)sulfamoyl)benzenesulfonate] |  |  |  |  | robust and selective uptake | labeling of endothelial processes (arrow) and cell bodies (arrowhead) |

Reference: patent US20260272895A1, “METHODS AND KITS FOR DELIVERY OF COMPOUNDS INTO CELLS” (Yale University, priority 2023, published 2026)
